{"source": "patent US20190076439A1", "about": "“AMINOPHENOTHIAZINES FOR MODULATING THE NUMBER OF SYNAPSES” (CONSEJO SUPERIOR DE INVESTIGACIONES CIENTIFICAS (CSIC), priority 2015, published 2019)", "key": {"[1]": {"biological_target": "T1, Drosophila NCS-1 (Frq2) protein (Drosophila melanogaster, UniProt Q9VWX8)", "T1 sequence (Q9VWX8 1-187)": "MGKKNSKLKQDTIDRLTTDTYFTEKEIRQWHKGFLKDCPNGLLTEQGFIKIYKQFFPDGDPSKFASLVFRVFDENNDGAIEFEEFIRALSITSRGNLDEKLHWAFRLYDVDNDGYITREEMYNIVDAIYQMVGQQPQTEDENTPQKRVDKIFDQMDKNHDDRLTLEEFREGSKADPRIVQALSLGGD", "experiment": "Crystallographic structure of the NCS-1 complex with FD44", "type": "binding", "conditions": "1.6 Å dataset, FIG. 4", "source_text": "FIG. 4 (A) Representation of the crystallographic structure of the NCS1/FD44 complex. The FD44 molecule is shown in sticks. The 2Fo-Fc map of the small molecule is shown at 1σ. (B) Representation of the electrostatic molecular surface of NCS1 bound to FD44 where the hydrophobic environment of FD44 is observed. (C) Detailed view of the amino acids in contact with FD44. The majority of the interactions are Van der Waals, except a strong hydrogen bond with T92, that is mediated by water molecule (with discontinuous black lines), and three weak hydrogen bonds where a C atom is the hydrogen donor and an O atom is the acceptor. (D) Close-up view of the cavity where FD44 is bound.\nThe purified Drosophila NCS-1 (Frq2) protein was dialyzed with water and concentrated to 10 mg ml-1 using a concentrator with a cut membrane of 10 kDa (Vivaspin®). 0.3 mg of FD44 were added to 250 μl of protein sample and incubated for 16 hours at 4° C. The insoluble fraction of the compound was separated by centrifugation. The preliminary crystallization experiments were carried out using the Innovadine® crystallization robot and commercial crystallization kits (Molecular Dimensions®, Qiagen®, Hampton Research® and Jena Bioscience®). […]"}, "[2]": {"system": "Drosophila fmr1 mutant and wild type larvae", "excerpt": "FIG. 3 A) volume of the neuromuscular plate normalized with respect to the wild type. Wt DMSO=wild type larvae grown in medium with DMSO carrier (200 micromolar), wt FD44=larvae grown in medium with FD44 dissolved in DMSO (200 micromolar), dFMRPmutDMSO=mutant larvae for the fmr1 gene grown in medium with DMSO, dFMRPmut FD44=mutant larvae grown in medium with FD44 (200 micromolar). B) Same genotypes computing the synapse number (immunopositive points for the nc82 monoclonal antibody). C) Same genotypes computing the number of collateral branches. D) Representative images of each genotype. Each image is an accumulation of all the confocal planes.\nThe mutating in the fmr1 gene corresponds to Fmr1^Δ50M # BL-6930 and the wild type corresponds to the Canton-S strain, all originating from the repository of the Bloomington Drosophila Stock Center. […] Once the medium had cooled, the vials were used normally for placing eggs and growing larvae at 25° C. until reaching the advanced LIII stage.\nReaching the advanced larva III stage, the animals were surgically processed to expose the neuromuscular junctures (NMJ) following the described method (Martin-Peña et al., Age-independent synaptogenesis by phosphoinositide 3 kinase. J Neurosci. 2006 Oct. 4; 26(40):10199-208). The nc82 antibody is a specific monoclonal for the Bruchpilot protein of Drosophila belonging to the CAST family of vertebrae and forms the presynaptic specialization. It was obtained from the Drosophila Hybridoma Bank (DSHB). The anti-HRP antibody produced in rabbits marks the neuronal membrane and was obtained from Jackson ImmunoResearch. A larval neuromuscular juncture was analyzed up to a total of 8-12 larvae per genotype to avoid growth artefacts. The serialized confocal sections of 1 micrometer thickness were analyzed and quantified using the Imaris® program.\nThe larval preparations were stained with the nc82 antibody to visualize the synapse and with the anti-HRP to visualize the membrane of the axon. Lastly, the synapse number was measured in images obtained in confocal microscopy and quantified by means of Imaris® software."}, "[3]": {"biological_target": "T2, interaction between human NCS1 and Ric8a (Homo sapiens, UniProt P62166)", "T2 construct": "The NCS1 construct was subcloned into pCDNA3.1; expressed in transfected cells; host or cells: HEK293", "T2 sequence (P62166 2-190 limits assumed)": "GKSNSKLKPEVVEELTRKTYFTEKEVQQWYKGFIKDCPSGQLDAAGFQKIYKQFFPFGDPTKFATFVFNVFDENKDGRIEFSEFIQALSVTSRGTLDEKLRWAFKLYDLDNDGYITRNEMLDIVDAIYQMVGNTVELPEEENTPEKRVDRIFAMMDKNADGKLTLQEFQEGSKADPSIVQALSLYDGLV", "experiment": "Coimmunoprecipitation interference test of the NCS1/Ric8a interaction in lysate of transfected HEK293 cells", "type": "biochemical", "conditions": "HEK293 cells transfected with V5-Ric8a and NCS1; lysate incubated with compound; FIG. 2", "procedure": "The DMSO lane represents a positive control of the interaction.\nIn order to check whether the interaction which has been previously detected (Romero-Pozuelo J et al. The guanine-exchange factor Ric8a binds to the Ca^2+ sensor NCS-1 to regulate synapse number and neurotransmitter release. J Cell Sci. 2014 Oct. 1; 127(Pt 19):4246-59) between the Drosophila Frq2 and Ric8a proteins, the coimmunoprecipitation of their human equivalents, NCS1 and Ric8a was tested. Human Ric8a was subcloned into nV5pCDNA3.1. The NCS1 construct was subcloned into pCDNA3.1. The cotransfections were carried out in HEK293 cells using the Superfect® (Qiagen®) reagent and lysed 48 hours later. Before its clarification, the lysates were incubated with the respective compound at 4° C. for the night (12 hours) with and without anti-V5 (Invitrogen®) or anti-NCS1 (Cell Signaling Technology®) antibodies as is indicated in each experiment. As a negative control, immunoprecipitations were carried out with an unrelated antibody. The following antibodies and dilutions were used with the Western blots: rabbit anti-NCS1 (1:1000) and mouse anti-V5 (1:2000). […] The Ric8a immunoprecipitation pulls NCS1 and vice versa. […]"}}}
{"smiles": "O=C(CN1CCCCC1)NN1c2ccccc2Sc2ccccc21", "note": "[FD44]", "values": [{"measurement": "binding mode in the NCS-1 crystal complex", "setting": "[1]", "value": "inserted in the N-terminal part of the elongated hydrophobic groove"}, {"measurement": "neuronal projection volume (volume of the neuromuscular plate)", "setting": "[2]; fmr1 mutant larvae, 200 micromolar in culture medium, FIG. 3A", "value": "reverts the neuronal projection volume to the normal levels of the controls"}, {"measurement": "synapse number (nc82 immunopositive points)", "setting": "[2]; fmr1 mutant larvae, 200 micromolar in culture medium, FIG. 3B", "value": "reversion in the mutant which has ingested FD44"}, {"measurement": "effect on wild type control (volume of the neuromuscular plate)", "setting": "[2]; in vivo", "value": "innocuous for the wild type control"}, {"measurement": "collateral branch number (neuritogenesis)", "setting": "[2]; wild type and fmr1 mutant larvae, 200 micromolar in culture medium, FIG. 3C", "value": "does not show any change"}, {"measurement": "inhibition of the interaction between human NCS1 and Ric8a (coimmunoprecipitation, Western blot)", "setting": "[3]", "value": "effectively inhibits this interaction"}]}
